Measurements reported in patent US20200360391A1, “Medicinal Composition for Treating Intractable Heart Disease” (Osaka University, priority 2016, published 2020).
“Also recorded” adds a separate entry of the source. Where a name gives a salt, the structure may show the parent alone. Read-outs that look alike come from different tables or passages of the source. Marks after values point to notes of the source that are not given here.

Assays:
[1] = test system: spontaneous dilated cardiomyopathy (J2N-k) hamster model; assay: Spontaneous dilated cardiomyopathy (J2N-k) hamster model, 8-week administration from 20 weeks of age (Tests 1-3): echocardiography, body weight; settings: for Minimal effective dose (screening 2): mg/kg twice per day, oral preparation
Protocol: The doses of pharmaceutical products were determined based on the no-observed-adverse-effect levels in a long-term toxicity study using rats. δ-Glycan-deficient spontaneous dilated cardiomyopathy (J2N-k) male hamsters (Japan SLC, Inc.) were delivered at 18 weeks of age. After a 2-week quarantine/acclimation, echocardiography was performed.
Each of the pharmaceutical products (A to K and O) was individually administered twice daily (at an interval of 8 hours or more) by oral gavage, and echocardiography was performed after 4 and 8 weeks (before dissection). Differences from the value before the start of administration (at the time of grouping) (amount of change: Δ) in each group were examined, and the cardiac function (EF value, FS %, etc.) was compared with that in the vehicle group (Group 1). Moreover, the heart was removed […] after the start of administration, and electron microscopy and RNA protein measurement were performed. Specimens for immunopathology were also collected and evaluated.
Each pharmaceutical product was individually suspended in 0.5% CMC-Na (sodium carboxymethylcellulose; Wako Pure Chemical Industries, Ltd.) before use, and administered. […] To Group 1 (control), 0.5% CNC-Na (vehicle) was administered.
Each pharmaceutical product was individually suspended in 0.5% CMC-Na (sodium carboxymethylcellulose; Wako Pure Chemical Industries, Ltd.) before use, and administered. Test substance G was suspended in distilled water before use, and administered.
Reason the doses were set (assuming that the adult body weight was 60 kg, the same amounts as the maximum clinical doses were set) • 1) The clinical dose of C (ozagrel; OZ) was 200 mg twice per day. The dose was thus set to 3.3 mg/kg twice per day. • 2) The clinical dose of D (cilostazol; CS) was 100 mg twice per day. The dose was thus set to 1.7 mg/kg twice per day. • 3) The clinical dose of E (pirfenidone; PF) was 600 mg three times per day, i.e., 1800 mg/day in total. The dose was thus set to 15 mg/kg twice per day. • 4) The clinical dose of G (nintedanib sulfonate; OB) was 150 mg twice per day. The dose was thus set to 2.5 mg/kg twice per day. • 5) The clinical dose of P (carvedilol; CV) was 10 mg twice per day. The dose was thus set to 0.17 mg/kg twice per day. • 6) Preparation 2 (PLGA⋅MS preparation of camostat; B⋅MS): the clinical dose of active substance camostat was 200 mg three times per day, i.e., 600 mg/day in total; thus, intermittent subcutaneous administration at a daily dose of 10 mg/kg once every 4 weeks, twice in total was set. The dose was 1/28 of the total oral dose amount.
The dose volume in oral administration was 5 mL/kg (the amount of liquid to be administered to each animal was calculated based on the most recent body weight), and administered by oral gavage using a polypropylene disposable syringe and a rat stomach tube.
The administration period of each pharmaceutical product was 8 weeks.

[2] = cited from earlier work; for Cases with side effects (including laboratory test value abnormality): share of cases evaluated for safety
[3] = test system: rat coronary artery complete ischemia model; assay: Model of ischemia (MI) by rat coronary artery complete ligation (Tests 1 and 2): echocardiography, body weight; settings: MI Test 2, B 150, G 5, I 30, C 10 mg/kg p.o. b.i.d.; for Body weight: B MS 100, C MS 50, I MS 30 mg/kg s.c. single injection, mean; for value of change in E.F. compared with E.F. on Day 1 / value of change in F.S. compared with F.S. on Day 1: B-MS 100, C-MS 50, F-MS 30 mg/kg s.c. single injection, mean ± S.D.
[4] = test system: rats; assay: Repeated oral administration toxicity study in rats (dose-setting basis); settings: mg/kg twice per day, oral preparation
Text: The dose-setting basis for the doses of the test substances used in pharmacological tests is as described below.

[5] = test system: rats; settings: cited from earlier work
[6] = test system: spontaneous dilated cardiomyopathy J2N-k baby hamsters; assay: J2N-k baby hamsters (Test 4): administration alone or in combination, echocardiography, body weight; type: in vivo, hamster; settings: for % FS / EF (%) / value of change in E.F. compared with E.F. at 0 W / value of change in F.S. compared with F.S. at 0 W: Test 4, dose O 0.17, C 3.3, E 15, orally twice daily, mean ± S.D.
Protocol: δ-Glycan-deficient spontaneous dilated cardiomyopathy (J2N-k) male hamsters (Japan SLC, Inc.) were delivered at 4 weeks of age. After a 1-week quarantine/acclimation, echocardiography was performed. The hamsters were grouped by stratified random assignment based on the EF values and the body weights so that each administration group was equalized.
Each test substance was individually administered twice daily (at an interval of 8 hours or more) by oral gavage, and echocardiography was performed 4 and 8 weeks after the start of administration (before dissection). Differences from the value before the start of administration (at the time of grouping) (amount of change: A) in each group were examined, and the cardiac function (EF value, FS %, etc.) was compared with that in the vehicle group (Group 1).
The doses were set according to the dose-setting basis in Test 3, and similarly orally administered twice daily. Effects of administration of combinations of two or three of carvedilol, which is a β-blocker widely used clinically, and ozagrel and/or pirfenidone were examined.

[7] = test system: rats; settings: rats, cited from earlier work
[8] = Test 2, p.o. b.i.d., NOAEL-based dose
[9] = Test 4, p.o. b.i.d., clinical dose
[10] = Test 2, p.o. b.i.d., NOAEL-based dose, listed as lovastatin

Cn1c(=O)c2[nH]cnc2n(C)c1=O [Compound H, Theophylline]
LVIDd 4 W ([1]; Test 2, p.o. b.i.d.): 7.0 mm
LVIDd 8 W ([1]; Test 2, p.o. b.i.d.): 7.3 mm
LVIDs 4 W ([1]; Test 2, p.o. b.i.d.): 5.9 ± mm
LVIDs 8 W ([1]; Test 2, p.o. b.i.d.): 6.3 mm
% FS 4 W [1, 8]: not significantly higher
% FS value of change at 4 W compared with 0 W [1, 8]: not significantly higher
Body weight 0 W ([1]; hamster, in vivo): 121.4 g
Body weight 1 W ([1]; hamster, in vivo, po): 120.2 g
Body weight 2 W ([1]; hamster, in vivo, po): 120.2 g
Body weight 3 W ([1]; hamster, in vivo, po): 121.0 g
Body weight 4 W ([1]; hamster, in vivo, po): 122.4 g
Body weight 6 W ([1]; hamster, in vivo, po): 122.6 g
Body weight 8 W ([1]; hamster, in vivo, po): 123.6 g
Headache (headache/heavy-headedness) cases ([2]; human, in vivo): 2.56%
Nausea cases (cilostazol: nausea/vomiting) ([2]; human, in vivo): 4.05%
Palpitations cases ([2]; human, in vivo): 1.17%
Cases with side effects (including laboratory test value abnormality) [2]: 9.05%

CCCc1nn(C)c2c(=O)[nH]c(-c3cc(S(=O)(=O)N4CCN(C)CC4)ccc3OCC)nc12 [Compound I, Sildenafil citrate]
Body weight ([3]; 1 Day): 240.3 g
Body weight ([3]; 7 Day): 237.3 g
Body weight ([3]; 14 Day): 263.0 g
value of change in E.F. compared with E.F. on Day 1 ([3]; 14 Day): <−5.1 ± 2.5> %
value of change in F.S. compared with F.S. on Day 1 ([3]; 14 Day): <−2.8 ± 1.4> %
Body weight ([3]; 21 Day): 278.3 g
Body weight ([3]; 29 Day): 297.5 g
value of change in E.F. compared with E.F. on Day 1 ([3]; 29 Day): <−7.6 ± 4.3> %
value of change in F.S. compared with F.S. on Day 1 ([3]; 29 Day): <−4.1 ± 2.3> %
Body weight 0 W ([1]; Test 2, at grouping): 120.4 g
LVIDd 4 W ([1]; Test 2, p.o. b.i.d.): 7.1 mm
LVIDd 8 W ([1]; Test 2, p.o. b.i.d.): 7.3 mm
LVIDs 4 W ([1]; Test 2, p.o. b.i.d.): 5.9 mm
LVIDs 8 W ([1]; Test 2, p.o. b.i.d.): 6.2 ± mm
Body weight 2 W [1, 8]: 122.3 g
Body weight 3 W [1, 8]: 123.7 g
Body weight 4 W [1, 8]: 125.5 g
Body weight 5 W [1, 8]: 126.9 g
Body weight 6 W [1, 8]: 128.9 g
Minimal effective dose (screening 2) [1]: 0.4 mg/kg
Maximum no-observed-adverse-effect level (screening 1) [4]: 30 mg/kg
Lethal dose ([5]; intravenous injection in rats): ≥ 10 mg/kg
Lethal dose ([5]; oral administration): ≥ 1000 mg/kg

COc1ccccc1OCCNCC(O)COc1cccc2[nH]c3ccccc3c12 (stereo not shown) [Compound O, Carvedilol]
Body weight 0 W ([6]; Test 4, at grouping): 71.5 g
Action on decrease in left ventricular systolic function ([6]; Test 4, clinical doses p.o. b.i.d., 8 weeks): significant suppression action on a decrease in left ventricular systolic function; also recorded: action of significantly suppressing a decrease in left ventricular systolic function
Body weight 2 W [6, 9]: 84.2 g
Body weight 4 W [6, 9]: 92.6 g
Body weight 5 W [6, 9]: 97.8 g
Body weight 6 W [6, 9]: 101.3 g
Body weight 7 W [6, 9]: 104.0 g
Body weight 8 W [6, 9]: 106.1 g
% FS ([6]; 0 W (start of administration)): 38.8 ± 3.0%
EF (%) ([6]; 0 W (start of administration)): 76.9 ± 3.4%
% FS ([6]; 4 W): 34.4 ± 1.8%
EF (%) ([6]; 4 W): 71.7 ± 2.3%
value of change in E.F. compared with E.F. at 0 W ([6]; 4 W): <−5.2 ± 2.3> %
value of change in F.S. compared with F.S. at 0 W ([6]; 4 W): <−4.4 ± 2.1> %
% FS ([6]; 8 W): 30.1 ± 1.3%
EF (%) ([6]; 8 W): 65.8 ± 1.9%
value of change in E.F. compared with E.F. at 0 W ([6]; 8 W): <−11.1 ± 3.8> %
value of change in F.S. compared with F.S. at 0 W ([6]; 8 W): <−8.7 ± 3.2> %
Cardiac function (EF, FS %) actual measured value and/or amount of change compared with control, 8 W value ([1]; Test 3, clinical dose): significant cardiac function improvement effect
Cardiac function (EF, FS %) actual measured value or change rate compared with control, 4 W value ([1]; Test 3, clinical dose): significant cardiac function improvement effect
Cardiac function improvement effect ([1]; Test 3, clinical dose, summary): cardiac function improvement effect was observed
Minimal effective dose (screening 2) [1]: 0.17 mg/kg

Lovastatin calcium [Compound J]
No-observed-adverse-effect level ([7]; 1 month): 15 mg/kg
No-observed-adverse-effect level ([7]; 6 months): 2 mg/kg
No-observed-adverse-effect level ([7]; 13 weeks / 3 months): 10 mg/kg
Body weight lower than that in the control group ([1]; Test 2, 8 weeks after start of administration, 5 mg/kg b.i.d.): about 10%
% FS 0 W ([1]; Test 2, at grouping): 17 ± 2%
Body weight 0 W ([1]; Test 2, at grouping): 122.9 g
EF 0 W ([1]; Test 2, at grouping): 43 ± 3%
LVIDd 0 W ([1]; Test 2, at grouping): 6.7 mm
LVIDs 0 W ([1]; Test 2, at grouping): 5.6 mm
LVIDd 4 W ([1]; Test 2, p.o. b.i.d.): 7.1 mm
LVIDd 8 W ([1]; Test 2, p.o. b.i.d.): 7.4 mm
LVIDs 4 W ([1]; Test 2, p.o. b.i.d.): 6.0 mm
LVIDs 8 W ([1]; Test 2, p.o. b.i.d.): 6.3 ± mm
% FS 4 W [1, 8]: 15 ± 1%
% FS 8 W [1, 8]: 14 ± 1%
% FS value of change at 4 W compared with 0 W [1, 8]: <−2 ± 1> %
% FS value of change at 8 W compared with 0 W [1, 8]: <−3 ± 1> %
Body weight 3 W [1, 8]: 120.8 g
Body weight 5 W [1, 8]: 120.3 * g
Body weight 7 W [1, 8]: 118.7 ** g
Body weight 8 W [1, 8]: 118.0 * g
EF 4 W [1, 8]: 39 ± 2%
EF 8 W [1, 8]: 37 ± 2%
EF value of change at 4 W compared with 0 W [1, 8]: <−4 ± 1> %
EF value of change at 8 W compared with 0 W [1, 8]: <−6 ± 3> %
% FS 4 W [1, 10]: not significantly higher
% FS value of change at 4 W compared with 0 W [1, 10]: significantly higher
LVIDs 8 W ([1]; Test 2, p.o. b.i.d., listed as lovastatin): significantly lower
CK (CPK) elevation cases ([2]; human, in vivo): 1.6%
Elevated AST (GOT) and/or ALT (GPT) / liver enzyme cases ([2]; human, in vivo): 1.7%
Muscle pain cases ([2]; human, in vivo): 3.2%
Cases with side effects (including laboratory test value abnormality) [2]: 18.8%
